Patent US20180185374A1, “INHIBITORS OF MTOR KINASE AS ANTI-VIRAL AGENTS” (THE TRUSTEES OF PRINCETON UNIVERSITY, priority 2009, published 2018)
“Also recorded” adds a separate entry of the source.

Key:
[1] = system: HCMV; experiment: 4-PBA reversibility: HCMV yield 8 days after drug removal, TCID50; format: cell-based, human cytomegalovirus; details: all doses tested; 8-day treatment; 16 days post infection
Protocol: (§1) FIG. 11. 4-PBA is not toxic to uninfected or infected confluent human fibroblasts. (A) Fibroblasts were maintained in medium containing the indicated concentrations of 4-PBA for 8 days. The medium was replaced every other day throughout the time course. At the end of the treatment period, cell viability was measured by the trypan blue exclusion assay. Date points represent the mean of duplicate wells. (B) Fibroblasts were infected with HCMV at a multiplicity of 0.1 pfu/cell. Cells were fed every other day with fresh medium containing the indicated concentration of 4-PBA. At eight days post infection, cells were washed once with media, and then media lacking drug was added. Eight days later (16 days post infection) cell free virus in the supernatant was quantitated by the TCID50 method. Date points represent the mean of duplicate wells.
(§2) Two experiments were performed to rule out the possibility that 4-PBA is simply toxic to the cells and inhibits HCMV indirectly by reducing cell viability (FIG. 11). In the first experiment (FIG. 11A) an assay for cell viability was performed on confluent human fibroblasts treated for eight days with different concentrations of the drug. […] Then the drug was removed and the yield of virus was determined 8 days later.

[2] = system: HCMV strain AD169; experiment: HCMV AD169 replication in human fibroblasts treated with 4-PBA, TCID50; format: cell-based, human cytomegalovirus; details: 0.1 pfu/cell; day 8 post infection; range of 4-PBA doses
Excerpt: FIG. 10. 4-PBA inhibits HCMV replication in a dose-dependent manner. […] The medium with drug was replaced every other day. Cell-free and cell-associated virus was collected on day 8 post infection and titered by the TCID50 method. Data represent the log mean titer of duplicate samples.
To explore the hypothesis that HCMV might actually require the UPR to occur in order to maintain cellular homeostasis despite high levels of expression of viral glycoproteins, HCMV-infected human fibroblasts (HFFs) were treated with an inhibitor of the UPR, the chemical chaperone sodium 4-phenylbutyrate (4-PBA).

[3] = system: human fibroblasts; experiment: trypan blue exclusion viability of confluent human fibroblasts treated with 4-PBA; format: cell-based; details: 8 days; up to highest dose tested
Protocol: as §1, §2

[4] = target: mTOR (Homo sapiens, UniProt P42345); details: read-out: IC50 of selective mTOR inhibitor; cited from earlier work
[5] = system: PI3Ks; details: cited from earlier work
[6] = system: panel of 140 protein kinases; details: read-out: IC50 against panel of 140 protein kinases; cited from earlier work
[7] = system: HCMV; experiment: HCMV multistep growth in serum-starved human fibroblasts, cell-free virus by TCID50; format: cell-based, human cytomegalovirus; details: day 10; 0.05 PFU/cell; rapamycin 20 nM, Torin1 250 nM
[8] = system: MCMV; experiment: MCMV replication in MEFs, cell-free virus by TCID50; format: cell-based, murine cytomegalovirus; details: wild-type MEFs; 0.05 PFU/cell; rapamycin 20 nM, Torin1 250 nM

SMILES: O=C([O-])CCCc1ccccc1.[Na+] [4-PBA, sodium 4-phenylbutyrate]
- virus yield 8 days after drug removal [1]: recovered and produced a normal yield
- HCMV replication / virus production [2]: effectively inhibited virus replication in a dose-dependent manner; also recorded: inhibited virus production in a dose-dependent manner
- cellular viability / toxicity, trypan blue exclusion [3]: no effect on cellular viability; also recorded: not toxic

SMILES: COC(=O)Nc1ccc(-c2nc(N3CCOCC3)c3cnn(C4CCN(C(=O)OC)CC4)c3n2)cc1 [WYE354]
- IC50 [4]: 5 nM

SMILES: CNC(=O)Nc1ccc(-c2nc(N3CC4CCC(C3)O4)c3cnn(C4CCC5(CC4)OCCO5)c3n2)cc1 [WYE-125132]
- IC50 [4]: 0.19 nM
- fold selective versus PI3Ks (PI3K) [5]: > 5,000 fold

SMILES: O=C(Nc1ccc(-c2nc(N3CC4CCC(C3)O4)c3sccc3n2)cc1)NC1CC1 [Wyeth-BMCL-200910075-9b]
- IC50 [4]: 0.7 nM
- fold selective versus PI3Ks (PI3K) [5]: > 1,000 fold

SMILES: Cc1c(C(=O)N2CCOc3ccc(-c4ccc(N)nc4)cc3C2)ccc(S(C)(=O)=O)c1F [XL388]
- IC50 [6]: > 3000 nM

SMILES: CO[C@H]1C[C@@H]2CC[C@@H](C)[C@@](O)(O2)C(=O)C(=O)N2CCCC[C@H]2C(=O)O[C@H]([C@H](C)C[C@@H]2CC[C@@H](O)[C@H](OC)C2)CC(=O)[C@H](C)/C=C(\C)[C@@H](O)[C@@H](OC)C(=O)[C@H](C)C[C@H](C)/C=C/C=C/C=C/1C [rapamycin]
- reduction of HCMV yield [7]: ~8 fold
- MCMV replication [8]: no inhibitory effect
